Bridge positions count the residues as written; N and C are the ends. Square brackets hold non-standard residues; d marks the D form. Peptide text beside a SMILES is read from it. Hyp = O=C(O)[C@@H]1C[C@@H](O)CN1
Columns and labels:
hAMY3 receptor = biological target: T1, hAMY3 receptor (Homo sapiens, UniProt O60896+P30988); experiment: cAMP assay for in vitro receptor activation, hAMY3-R; format: cell-based; conditions: cAMP assay, hAMY3 receptor; read-out: hAMY3R EC50
T1 sequence (P30988 25-474): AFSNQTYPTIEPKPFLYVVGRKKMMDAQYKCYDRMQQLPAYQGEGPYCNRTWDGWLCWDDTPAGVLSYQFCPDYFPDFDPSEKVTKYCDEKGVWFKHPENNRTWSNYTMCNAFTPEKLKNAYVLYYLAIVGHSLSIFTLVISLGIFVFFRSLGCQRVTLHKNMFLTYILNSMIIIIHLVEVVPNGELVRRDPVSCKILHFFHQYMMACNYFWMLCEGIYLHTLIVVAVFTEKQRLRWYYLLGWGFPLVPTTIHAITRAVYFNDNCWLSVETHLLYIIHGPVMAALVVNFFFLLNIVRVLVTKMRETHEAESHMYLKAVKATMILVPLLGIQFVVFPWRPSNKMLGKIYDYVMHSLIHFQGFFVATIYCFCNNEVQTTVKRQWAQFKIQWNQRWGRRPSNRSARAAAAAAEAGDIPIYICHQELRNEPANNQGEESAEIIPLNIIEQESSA
T1 sequence (O60896 24-148 partner): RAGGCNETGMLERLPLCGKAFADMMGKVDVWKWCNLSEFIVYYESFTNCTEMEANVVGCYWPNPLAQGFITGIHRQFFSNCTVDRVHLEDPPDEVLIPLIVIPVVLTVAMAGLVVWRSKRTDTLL
Outline: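 Read-out is TR-FRET cAMP signal, recorded one hour after reagent addition, following 30 min room-temperature stimulation of stable hAMY3 cells with graded compound doses in casein/IBMX (0.5 mM) buffer.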

hAM1 receptor = hAM1 receptor (Homo sapiens, UniProt O60895+Q16602); experiment: cAMP assay for in vitro receptor activation, hAM1-R; format: cell-based; conditions: cAMP assay, hAM1 receptor; read-out: hAM1R EC50
Sequence of hAM1 receptor (Q16602 23-461): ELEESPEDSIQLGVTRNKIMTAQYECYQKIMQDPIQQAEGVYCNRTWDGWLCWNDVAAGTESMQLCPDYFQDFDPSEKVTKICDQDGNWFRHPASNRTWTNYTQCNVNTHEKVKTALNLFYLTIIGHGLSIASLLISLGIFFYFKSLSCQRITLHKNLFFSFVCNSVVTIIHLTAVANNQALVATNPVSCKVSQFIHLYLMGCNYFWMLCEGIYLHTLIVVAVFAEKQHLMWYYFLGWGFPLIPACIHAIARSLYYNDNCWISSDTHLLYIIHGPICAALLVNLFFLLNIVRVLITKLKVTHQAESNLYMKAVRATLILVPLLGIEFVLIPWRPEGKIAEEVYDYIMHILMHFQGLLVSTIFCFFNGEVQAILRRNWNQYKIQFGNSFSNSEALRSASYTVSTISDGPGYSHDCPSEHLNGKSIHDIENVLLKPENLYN
Sequence of hAM1 receptor (O60895 43-175 partner): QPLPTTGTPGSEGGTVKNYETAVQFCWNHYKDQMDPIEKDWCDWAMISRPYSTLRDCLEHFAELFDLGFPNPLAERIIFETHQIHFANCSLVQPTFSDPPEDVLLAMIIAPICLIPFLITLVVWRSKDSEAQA
Outline: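 Stable hAM1 cells (monoclonal) plated 8000/well; buffer DPBS, 0.05% casein, 0.5 mM IBMX; cAMP read-out.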

[1] = Physical stability of peptide analogues (Thioflavin T fibrillation); format: physicochemical; conditions: maximum ThT signal normalized between hAMY maximum and buffer background; 40° C., shaking, four days; pH 7 per table title
Outline: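 1 h in 50 mM NaOAc pH 4 / 50 mM NaPi pH 7; + ThT 4 μM final; 40 °C, 700 rpm linear shake 5 min pre-read; ex 450, em 480 nm q10 min × 4 d; LOESS smoothing; max signal normalised to hAMY max vs buffer blank.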

For `CC[C@H](C)[C@H](NC(=O)[C@H](CCC(N)=O)NC(=O)[C@H](Cc1c[nH]cn1)NC(=O)[C@H](C)NC(=O)[C@H](CC(C)C)NC(=O)[C@H](CCCNC(=N)N)NC(=O)[C@H](CCC(N)=O)NC(=O)[C@@H](NC(=O)[C@@H](NC(=O)[C@@H]1CSSC[C@H](NC(=O)[C@@H](N)CCCCN)C(=O)N[C@@H](CC(N)=O)C(=O)N[C@@H]([C@@H](C)O)C(=O)N[C@@H](C)C(=O)N[C@@H]([C@@H](C)O)C(=O)N1)[C@@H](C)O)C(C)C)C(=O)N[C@@H](Cc1ccc(O)cc1)C(=O)N[C@@H](CCC(N)=O)C(=O)N[C@@H](Cc1ccccc1)C(=O)N[C@H](C(=O)N[C@@H](C)C(=O)N[C@@H](CCCCN)C(=O)N[C@@H](CC(=O)O)C(=O)N[C@@H](CCCCN)C(=O)N[C@@H](CC(=O)O)C(=O)N[C@@H](CC(N)=O)C(=O)N[C@H](C(=O)N[C@@H](C)C(=O)N1CCC[C@H]1C(=O)N1CCC[C@H]1C(=O)N[C@H](C(=O)N[C@@H](CC(N)=O)C(=O)N[C@H](C(=O)NCC(=O)N[C@@H](CO)C(=O)N[C@@H](CC(N)=O)C(=O)NCC(=O)N1C[C@H](O)C[C@H]1C(N)=O)C(C)C)[C@@H](C)O)C(C)C)[C@@H](C)O` [compound 24] (H-KCNTATCTVQRLAHQIYQFTAKDKDNVAPPTNVGSNG[Hyp]-NH2; disulfide 2-7; N-terminus assumed), the EC50 (hAMY3 receptor) was 0.008 nM, the EC50 (hAM1 receptor) was > 5000 nM and the “Max ThT signal (%)” value [1] was 6.800%.

In the case of `CC[C@H](C)[C@H](NC(=O)[C@H](CCC(N)=O)NC(=O)[C@H](Cc1c[nH]cn1)NC(=O)[C@H](C)NC(=O)[C@H](CC(C)C)NC(=O)[C@H](CCCNC(=N)N)NC(=O)[C@H](CCC(N)=O)NC(=O)[C@@H](NC(=O)[C@@H](NC(=O)[C@@H]1CSSC[C@H](NC(=O)[C@@H](N)CCCCN)C(=O)N[C@@H](CC(N)=O)C(=O)N[C@@H]([C@@H](C)O)C(=O)N[C@@H](C)C(=O)N[C@@H]([C@@H](C)O)C(=O)N1)[C@@H](C)O)C(C)C)C(=O)N[C@@H](Cc1ccc(O)cc1)C(=O)N[C@@H](CCC(N)=O)C(=O)N[C@@H](Cc1ccccc1)C(=O)N[C@H](C(=O)N[C@@H](CC(=O)O)C(=O)N[C@@H](CCCCN)C(=O)N[C@@H](CC(=O)O)C(=O)N[C@@H](C)C(=O)N[C@@H](CC(=O)O)C(=O)N[C@@H](CC(N)=O)C(=O)N[C@H](C(=O)N[C@@H](C)C(=O)N1CCC[C@H]1C(=O)N1CCC[C@H]1C(=O)N[C@H](C(=O)N[C@@H](CC(N)=O)C(=O)N[C@H](C(=O)NCC(=O)N[C@@H](CO)C(=O)N[C@@H](CC(N)=O)C(=O)NCC(=O)N1C[C@H](O)C[C@H]1C(N)=O)C(C)C)[C@@H](C)O)C(C)C)[C@@H](C)O` [compound 25] (H-KCNTATCTVQRLAHQIYQFTDKDADNVAPPTNVGSNG[Hyp]-NH2; disulfide 2-7; N-terminus assumed), the EC50 (hAMY3 receptor) is reported as 0.008 nM, the EC50 (hAM1 receptor) is reported as > 5000 nM and the “Max ThT signal (%)” value [1] is reported as 33.400%.

For `CC[C@H](C)[C@H](NC(=O)[C@H](CCC(N)=O)NC(=O)[C@H](Cc1c[nH]cn1)NC(=O)[C@H](C)NC(=O)[C@H](CC(C)C)NC(=O)[C@H](CCCNC(=N)N)NC(=O)[C@H](CCC(N)=O)NC(=O)[C@@H](NC(=O)[C@@H](NC(=O)[C@@H]1CSSC[C@H](NC(=O)[C@@H](N)CCCCN)C(=O)N[C@@H](CC(N)=O)C(=O)N[C@@H]([C@@H](C)O)C(=O)N[C@@H](C)C(=O)N[C@@H]([C@@H](C)O)C(=O)N1)[C@@H](C)O)C(C)C)C(=O)N[C@@H](Cc1ccc(O)cc1)C(=O)N[C@@H](CCC(N)=O)C(=O)N[C@@H](Cc1ccccc1)C(=O)N[C@H](C(=O)N[C@@H](CC(=O)O)C(=O)N[C@@H](CCCCN)C(=O)N[C@@H](CC(=O)O)C(=O)N[C@@H](CCCCN)C(=O)N[C@@H](C)C(=O)N[C@@H](CC(N)=O)C(=O)N[C@H](C(=O)N[C@@H](C)C(=O)N1CCC[C@H]1C(=O)N1CCC[C@H]1C(=O)N[C@H](C(=O)N[C@@H](CC(N)=O)C(=O)N[C@H](C(=O)NCC(=O)N[C@@H](CO)C(=O)N[C@@H](CC(N)=O)C(=O)NCC(=O)N1C[C@H](O)C[C@H]1C(N)=O)C(C)C)[C@@H](C)O)C(C)C)[C@@H](C)O` [compound 26] (H-KCNTATCTVQRLAHQIYQFTDKDKANVAPPTNVGSNG[Hyp]-NH2; disulfide 2-7; N-terminus assumed), the EC50 (hAMY3 receptor) was 0.008 nM, the EC50 (hAM1 receptor) was > 5000 nM and the “Max ThT signal (%)” value [1] was 0.000%.

In the case of `CC[C@H](C)[C@H](NC(=O)[C@H](CCC(N)=O)NC(=O)[C@H](Cc1c[nH]cn1)NC(=O)[C@H](C)NC(=O)[C@H](CC(C)C)NC(=O)[C@H](CCCNC(=N)N)NC(=O)[C@H](CCC(N)=O)NC(=O)[C@@H](NC(=O)[C@@H](NC(=O)[C@@H]1CSSC[C@H](NC(=O)[C@@H](N)CCCCN)C(=O)N[C@@H](CC(N)=O)C(=O)N[C@@H]([C@@H](C)O)C(=O)N[C@@H](C)C(=O)N[C@@H]([C@@H](C)O)C(=O)N1)[C@@H](C)O)C(C)C)C(=O)N[C@@H](Cc1ccc(O)cc1)C(=O)N[C@@H](CCC(N)=O)C(=O)N[C@@H](Cc1ccccc1)C(=O)N[C@H](C(=O)N[C@@H](CC(=O)O)C(=O)N[C@@H](CCCCN)C(=O)N[C@@H](CC(=O)O)C(=O)N[C@@H](CCCCN)C(=O)N[C@@H](CC(=O)O)C(=O)N[C@@H](CC(N)=O)C(=O)N[C@@H](C)C(=O)N[C@@H](C)C(=O)N1CCC[C@H]1C(=O)N1CCC[C@H]1C(=O)N[C@H](C(=O)N[C@@H](CC(N)=O)C(=O)N[C@H](C(=O)NCC(=O)N[C@@H](CO)C(=O)N[C@@H](CC(N)=O)C(=O)NCC(=O)N1C[C@H](O)C[C@H]1C(N)=O)C(C)C)[C@@H](C)O)[C@@H](C)O` [compound 27] (H-KCNTATCTVQRLAHQIYQFTDKDKDNAAPPTNVGSNG[Hyp]-NH2; disulfide 2-7; N-terminus assumed), the EC50 (hAMY3 receptor) is reported as 0.008 nM, the EC50 (hAM1 receptor) is reported as > 5000 nM and the “Max ThT signal (%)” value [1] is reported as 21.80%.

With `CC[C@H](C)[C@H](NC(=O)[C@H](CCC(N)=O)NC(=O)[C@H](Cc1c[nH]cn1)NC(=O)[C@H](C)NC(=O)[C@H](CC(C)C)NC(=O)[C@H](CCCNC(=N)N)NC(=O)[C@H](CCC(N)=O)NC(=O)[C@@H](NC(=O)[C@@H](NC(=O)[C@@H]1CSSC[C@H](NC(=O)[C@@H](N)CCCCN)C(=O)N[C@@H](CC(N)=O)C(=O)N[C@@H]([C@@H](C)O)C(=O)N[C@@H](C)C(=O)N[C@@H]([C@@H](C)O)C(=O)N1)[C@@H](C)O)C(C)C)C(=O)N[C@@H](Cc1ccc(O)cc1)C(=O)N[C@@H](CCC(N)=O)C(=O)N[C@@H](Cc1ccccc1)C(=O)N[C@H](C(=O)N[C@@H](CC(=O)O)C(=O)N[C@@H](CCCCN)C(=O)N[C@@H](CC(=O)O)C(=O)N[C@@H](CCCCN)C(=O)N[C@@H](CC(=O)O)C(=O)N[C@@H](CC(N)=O)C(=O)N[C@H](C(=O)N[C@@H](C)C(=O)N1CCC[C@H]1C(=O)N[C@@H](C)C(=O)N[C@H](C(=O)N[C@@H](CC(N)=O)C(=O)N[C@H](C(=O)NCC(=O)N[C@@H](CO)C(=O)N[C@@H](CC(N)=O)C(=O)NCC(=O)N1C[C@H](O)C[C@H]1C(N)=O)C(C)C)[C@@H](C)O)C(C)C)[C@@H](C)O` [compound 28] (H-KCNTATCTVQRLAHQIYQFTDKDKDNVAPATNVGSNG[Hyp]-NH2; disulfide 2-7; N-terminus assumed) the EC50 (hAMY3 receptor) was 0.008 nM, the EC50 (hAM1 receptor) was > 5000 nM and the “Max ThT signal (%)” value [1] was 8.200%.

With `CC[C@H](C)[C@H](NC(=O)[C@H](CCC(N)=O)NC(=O)[C@H](CCC(=O)O)NC(=O)[C@H](C)NC(=O)[C@H](CC(C)C)NC(=O)[C@H](CCCNC(=N)N)NC(=O)[C@H](C)NC(=O)[C@@H](NC(=O)[C@@H](NC(=O)[C@@H]1CSSC[C@H](NC(=O)[C@@H](N)CCCNC(=N)N)C(=O)N[C@@H](CCC(N)=O)C(=O)N[C@@H]([C@@H](C)O)C(=O)N[C@@H](CO)C(=O)N[C@@H]([C@@H](C)O)C(=O)N1)[C@@H](C)O)C(C)C)C(=O)N[C@@H](C)C(=O)N[C@@H](CCC(N)=O)C(=O)N[C@@H](Cc1ccc(O)cc1)C(=O)N[C@H](C(=O)N[C@@H](CC(=O)O)C(=O)N[C@@H](CCCCN)C(=O)N[C@@H](CC(=O)O)C(=O)N[C@@H](CCCCN)C(=O)N[C@@H](CC(=O)O)C(=O)N[C@@H](CCC(N)=O)C(=O)N[C@H](C(=O)N[C@@H](C)C(=O)N1CCC[C@H]1C(=O)N1CCC[C@H]1C(=O)N[C@H](C(=O)N[C@@H](CC(N)=O)C(=O)N[C@H](C(=O)NCC(=O)N[C@@H](CO)C(=O)N[C@@H](CC(N)=O)C(=O)N[C@@H](CO)C(=O)N1C[C@H](O)C[C@H]1C(N)=O)C(C)C)[C@@H](C)O)C(C)C)[C@@H](C)O` [compound 32] (H-RCQTSTCTVARLAEQIAQYTDKDKDQVAPPTNVGSNS[Hyp]-NH2; disulfide 2-7; N-terminus assumed) the EC50 (hAMY3 receptor) was 0.008 nM, the EC50 (hAM1 receptor) was > 5000 nM and the “Max ThT signal (%)” value [1] was 5.300%.
